Data: PubChem BioAssay (NCI)
Where “and” joins values, the source holds several entries; their conditions need not be identical. Equal entries are not always repeated.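 A five-concentration, 48-hour dose response in 96-well plates underlies each endpoint, interpolated linearly between surrounding concentrations. GI50: concentration for 50% inhibition of growth. TGI: total growth inhibition.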

How the values were obtained:
Assay in all cases: growth of human tumour cells (NCI), 48 h
ACHN renal = tested on: ACHN renal
TK-10 renal = tested on: TK-10 renal
NCI-H460 lung = tested on: NCI-H460 lung
M19-MEL melanoma = tested on: M19-MEL melanoma
U251 CNS = tested on: U251 CNS
SNB-75 CNS = tested on: SNB-75 CNS
SF-295 CNS = tested on: SF-295 CNS
RPMI-8226 leukemia = tested on: RPMI-8226 leukemia
SF-539 CNS = tested on: SF-539 CNS
NCI-H23 lung = tested on: NCI-H23 lung
IGROV1 ovarian = tested on: IGROV1 ovarian
HL-60(TB) leukemia = tested on: HL-60(TB) leukemia
786-0 renal = tested on: 786-0 renal
HCC-2998 colon = tested on: HCC-2998 colon
HCT-116 colon = tested on: HCT-116 colon
OVCAR-5 ovarian = tested on: OVCAR-5 ovarian
HOP-92 NSCLC = tested on: HOP-92 NSCLC
SR leukemia = tested on: SR leukemia
UO-31 renal = tested on: UO-31 renal
MOLT-4 leukemia = tested on: MOLT-4 leukemia
CCRF-CEM leukemia = tested on: CCRF-CEM leukemia
SW-620 colon = tested on: SW-620 colon
UACC-62 melanoma = tested on: UACC-62 melanoma
MALME-3M melanoma = tested on: MALME-3M melanoma
A549 NSCLC = tested on: A549 NSCLC
HT29 colon = tested on: HT29 colon
K-562 leukemia = tested on: K-562 leukemia
NCI-H522 lung = tested on: NCI-H522 lung
HCT-15 colon = tested on: HCT-15 colon
OVCAR-4 ovarian = tested on: OVCAR-4 ovarian
DLD-1 colon = tested on: DLD-1 colon
SK-MEL-5 melanoma = tested on: SK-MEL-5 melanoma
LXFL 529 NSCLC = tested on: LXFL 529 NSCLC
SNB-19 CNS = tested on: SNB-19 CNS
KM20L2 colon = tested on: KM20L2 colon
SK-MEL-2 melanoma = tested on: SK-MEL-2 melanoma
NCI-H226 lung = tested on: NCI-H226 lung
SK-MEL-28 melanoma = tested on: SK-MEL-28 melanoma
HOP-62 NSCLC = tested on: HOP-62 NSCLC
DMS 273 small cell lung = tested on: DMS 273 small cell lung
CAKI-1 renal = tested on: CAKI-1 renal
OVCAR-3 ovarian = tested on: OVCAR-3 ovarian
M14 melanoma = tested on: M14 melanoma
UACC-257 melanoma = tested on: UACC-257 melanoma
SF-268 CNS = tested on: SF-268 CNS
KM12 colon = tested on: KM12 colon
DMS 114 small cell lung = tested on: DMS 114 small cell lung
OVCAR-8 ovarian = tested on: OVCAR-8 ovarian
COLO 205 colon = tested on: COLO 205 colon
SN12C renal = tested on: SN12C renal
SK-OV-3 ovarian = tested on: SK-OV-3 ovarian
PC-3 prostate = tested on: PC-3 prostate
BT-549 breast = tested on: BT-549 breast
NCI/ADR-RES ovarian = tested on: NCI/ADR-RES ovarian
T-47D breast = tested on: T-47D breast
HS 578T breast = tested on: HS 578T breast
MDA-N = tested on: MDA-N
MCF7 breast = tested on: MCF7 breast
MDA-MB-231 breast = tested on: MDA-MB-231 breast
LOX IMVI melanoma = tested on: LOX IMVI melanoma
EKVX NSCLC = tested on: EKVX NSCLC
MDA-MB-435 = tested on: MDA-MB-435
DU-145 prostate = tested on: DU-145 prostate
RXF 393 renal = tested on: RXF 393 renal
A498 renal = tested on: A498 renal

SMILES: c1csc(C[N+]23CN4CN(CN(C4)C2)C3)c1
- TGI (ACHN renal): > 100 µM
- TGI (TK-10 renal): 79.5 µM
- TGI (NCI-H460 lung): 49.2 µM
- TGI (M19-MEL melanoma): 56 µM
- TGI (U251 CNS): 45.7 µM
- TGI (SNB-75 CNS): > 100 µM
- TGI (SF-295 CNS): > 100 µM
- TGI (RPMI-8226 leukemia): 58.7 µM
- TGI (SF-539 CNS): > 100 µM
- TGI (NCI-H23 lung): > 100 µM
- TGI (IGROV1 ovarian): 70.2 µM
- TGI (HL-60(TB) leukemia): 33.2 µM
- TGI (786-0 renal): 58.8 µM
- TGI (HCC-2998 colon): 34.1 µM
- TGI (HCT-116 colon): > 100 µM
- TGI (OVCAR-5 ovarian): 67.3 µM
- TGI (HOP-92 NSCLC): 44.9 µM
- TGI (SR leukemia): 35.9 µM
- TGI (UO-31 renal): > 100 µM
- TGI (MOLT-4 leukemia): 44.6 µM
- TGI (CCRF-CEM leukemia): 44.9 µM
- TGI (SW-620 colon): 90.7 µM
- TGI (UACC-62 melanoma): 47.5 µM
- TGI (MALME-3M melanoma): 33.2 µM
- TGI (A549 NSCLC): 87 µM
- TGI (HT29 colon): > 100 µM
- TGI (K-562 leukemia): 48.8 µM
- TGI (NCI-H522 lung): > 100 µM
- TGI (HCT-15 colon): 77.2 µM
- TGI (OVCAR-4 ovarian): 49 µM
- TGI (DLD-1 colon): > 100 µM
- TGI (SK-MEL-5 melanoma): 35.8 µM
- TGI (LXFL 529 NSCLC): 43.1 µM
- TGI (SNB-19 CNS): > 100 µM
- TGI (KM20L2 colon): 55.7 µM
- TGI (SK-MEL-2 melanoma): 37.3 µM
- TGI (NCI-H226 lung): > 100 µM
- TGI (SK-MEL-28 melanoma): > 100 µM
- TGI (HOP-62 NSCLC): 46.6 µM
- TGI (DMS 273 small cell lung): 41.8 µM
- TGI (CAKI-1 renal): 59.5 µM
- TGI (OVCAR-3 ovarian): > 100 µM
- TGI (M14 melanoma): 32.2 µM
- TGI (UACC-257 melanoma): > 100 µM
- TGI (SF-268 CNS): > 100 µM
- TGI (KM12 colon): > 100 µM
- TGI (DMS 114 small cell lung): 40.2 µM
- TGI (OVCAR-8 ovarian): 74.9 µM
- TGI (COLO 205 colon): 40.8 µM

SMILES: COc1ccc(-c2c3c(n(C4OC(COC(C)=O)C(OC(C)=O)C(OC(C)=O)C4OC(C)=O)c(=S)c2C#N)CC(C)(C)CC3=O)cc1 (centres undefined)
- GI50 (ACHN renal): 46.2 µM and > 100 µM
- TGI (ACHN renal): > 100 µM
- GI50 (TK-10 renal): 39.5 µM and > 100 µM
- TGI (TK-10 renal): > 100 µM
- TGI (NCI-H460 lung): > 100 µM
- GI50 (U251 CNS): 34.9 µM and > 100 µM
- TGI (U251 CNS): > 100 µM
- GI50 (SNB-75 CNS): 25 µM and 67.8 µM
- TGI (SNB-75 CNS): 97.9 µM and > 100 µM
- TGI (SN12C renal): > 100 µM
- TGI (SF-295 CNS): > 100 µM
- TGI (RPMI-8226 leukemia): 72.1 µM and > 100 µM
- TGI (SK-OV-3 ovarian): > 100 µM
- TGI (PC-3 prostate): > 100 µM
- TGI (BT-549 breast): 93.3 µM and > 100 µM
- TGI (SF-539 CNS): 58.6 µM and > 100 µM
- GI50 (NCI/ADR-RES ovarian): 41.6 µM and > 100 µM
- TGI (NCI/ADR-RES ovarian): > 100 µM
- GI50 (NCI-H23 lung): 39.9 µM and > 100 µM
- TGI (NCI-H23 lung): > 100 µM
- TGI (IGROV1 ovarian): > 100 µM
- GI50 (HL-60(TB) leukemia): 18.4 µM and 47.6 µM
- TGI (HL-60(TB) leukemia): 42.5 µM and > 100 µM
- TGI (T-47D breast): > 100 µM
- GI50 (786-0 renal): 36.3 µM and > 100 µM
- TGI (786-0 renal): > 100 µM
- TGI (HS 578T breast): > 100 µM
- TGI (HCC-2998 colon): > 100 µM
- TGI (MDA-N): > 100 µM
- TGI (MCF7 breast): > 100 µM
- TGI (MDA-MB-231 breast): > 100 µM
- GI50 (HCT-116 colon): 41.8 µM and > 100 µM
- TGI (HCT-116 colon): > 100 µM
- TGI (LOX IMVI melanoma): 97.5 µM and 77.2 µM
- TGI (OVCAR-5 ovarian): > 100 µM
- GI50 (HOP-92 NSCLC): 32.7 µM and > 100 µM
- TGI (HOP-92 NSCLC): > 100 µM
- TGI (SR leukemia): 74.7 µM and > 100 µM
- TGI (EKVX NSCLC): 97.5 µM
- TGI (UO-31 renal): > 100 µM
- GI50 (MDA-MB-435): 22.5 µM and 71.7 µM
- TGI (MDA-MB-435): 65.6 µM and > 100 µM
- TGI (MOLT-4 leukemia): 57.1 µM and > 100 µM
- GI50 (CCRF-CEM leukemia): 21.5 µM and 71.7 µM
- TGI (CCRF-CEM leukemia): 57.2 µM and > 100 µM
- TGI (SW-620 colon): > 100 µM
- TGI (UACC-62 melanoma): > 100 µM
- TGI (MALME-3M melanoma): > 100 µM
- TGI (A549 NSCLC): > 100 µM
- TGI (HT29 colon): > 100 µM
- GI50 (K-562 leukemia): 18.2 µM and 47.5 µM
- TGI (K-562 leukemia): 39.9 µM and > 100 µM
- TGI (NCI-H522 lung): > 100 µM
- GI50 (DU-145 prostate): 46.8 µM and > 100 µM
- TGI (DU-145 prostate): > 100 µM
- GI50 (HCT-15 colon): 40.7 µM and > 100 µM
- TGI (HCT-15 colon): > 100 µM
- GI50 (OVCAR-4 ovarian): 45.4 µM and > 100 µM
- TGI (OVCAR-4 ovarian): > 100 µM
- GI50 (SK-MEL-5 melanoma): 23.1 µM and 61.1 µM
- TGI (SK-MEL-5 melanoma): 75.7 µM and > 100 µM
- TGI (SNB-19 CNS): > 100 µM
- GI50 (RXF 393 renal): 20.2 µM and > 100 µM
- TGI (RXF 393 renal): 71.8 µM and > 100 µM
- GI50 (SK-MEL-2 melanoma): 26.3 µM and > 100 µM
- TGI (SK-MEL-2 melanoma): 76.4 µM and > 100 µM
- TGI (NCI-H226 lung): > 100 µM
- GI50 (SK-MEL-28 melanoma): 42 µM and > 100 µM
- TGI (SK-MEL-28 melanoma): > 100 µM
- TGI (HOP-62 NSCLC): > 100 µM
- TGI (CAKI-1 renal): > 100 µM
- GI50 (A498 renal): 42.1 µM and > 100 µM
- TGI (A498 renal): > 100 µM
- GI50 (OVCAR-3 ovarian): 40.5 µM and 88.7 µM
- TGI (OVCAR-3 ovarian): > 100 µM
- GI50 (M14 melanoma): 49.7 µM and > 100 µM
- TGI (M14 melanoma): > 100 µM
- GI50 (UACC-257 melanoma): 27.9 µM and > 100 µM
- TGI (UACC-257 melanoma): > 100 µM
- GI50 (SF-268 CNS): 38.9 µM and > 100 µM
- TGI (SF-268 CNS): > 100 µM
- TGI (KM12 colon): > 100 µM
- GI50 (OVCAR-8 ovarian): 22.1 µM and > 100 µM
- TGI (OVCAR-8 ovarian): 75.4 µM and > 100 µM
- TGI (COLO 205 colon): > 100 µM
